According to PMC12667295, “A surrogate barrier model for high-throughput blood-brain barrier permeability prediction: integrating LLC-PK1-MOCK/MDR1 Cells and lysosomal trapping correction” (Drug Delivery, 2025):
Read-outs that look alike come from different tables or passages of the source.

Columns and labels:
in vivo = conditions: rat
Source text: In vivo unbound brain distribution data (Kp,uu,Brain) for 16 drugs and total brain distribution data (Kp,Brain) for 16 drugs was acquired from literature. […] For each tested compound, fifteen rats were randomly divided into five groups of three rats each. […] The time of execution of the rats by CO2 inhalation after administration was optimized according to the in vivo elimination rate to achieve five concentrations of different time points. After the rats were euthanized, cardiac puncture was performed immediately to remove as much whole blood as possible (~7 ml) from the systemic circulation (Quantitatively aliquot 0.2 ml of whole blood for the determination of drug concentration in plasma). Afterwards, the brain tissue was collected immediately and rinsed repeatedly with ice-cold saline 3 times. Then, the surface saline was blotted dry with clean filter paper to remove as much residual drug in the blood vessels as possible. Plasma samples were prepared by centrifugation of the blood samples at 2,500 g for 10 minutes at 4 °C. All brain samples were homogenized by adding 4-fold volume water. All samples were stored at -40 °C before LC-MS/MS analysis. […] The brain tissue partition coefficient (Kp, brain) and brain-to-plasma unbound drug partition ratio (Kp,uu, brain) are calculated according to the following formulas, respectively: Kp,brain=AUC(0−∞,brain)/AUC(0−∞,plasma)Kp,uu,brain=Kp,brain×(fu,tissue/fu,plasma)
Free brain-to-plasma distribution coefficients (Kp,uu,brain) of 41 drugs. Brain distribution coefficients (Kp,uu,brain) were calculated for 41 drugs. […] Plasma and brain concentration-time profiles were generated, and AUC(0-t) values for both matrices were calculated using WinNolin 8.1. Kp,brain was derived as the ratio of brain-to-plasma AUC(0-t).
Kp,uu,brain values were computed by normalizing Kp,brain to unbound fractions (fu,plasma and fu,brain).

[1] = design: method as in Internal data; conditions: footnote a; ref Internal data; cited from earlier work
[2] = footnote a; ref Internal data; cited from earlier work
[3] = Bidirectional transport across LLC-PK1 MOCK monolayer (Transwell); conditions: pig; for Papp A→B at 2 h, 2 µM: LLC-PK1, pH 7.4, Papp A-B, LLC-PK1 MOCK, mean ± s, n = 3, BLQ = below 2 nM;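 on all read-outs here: compound quantified by LC-MS/MS in donor and receiver wells, efflux ratio as B-A over A-B Papp, recovery relative to initial donor amount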
Procedure: (§1) Cells were passaged at 80−90% confluence (every 2−3 days) using trypsin-EDTA solution. […] The culture medium was replaced every other day, including 200 µL culture medium in the apical and 850 µL cell culture medium in the basolateral side. LLC-PK1 MOCK cells were used at passages of 3−30. LLC-PK1-MDR1 cells were cultured and passaged in the same manner as LLC-PK1 cells except at the density of 1 × 10^4 cells per well. LLC-PK1-MDR1 cells were used at passages of 3−25. For LLC-PK1 MOCK cells and LLC-PK1-MDR1 cells, the experiments were performed on the 4th and 7th day after seeding.
(§2) Samples were collected from the donor well at the start of the incubation (50 µL) as C0, and from the donor and receiver wells at the end of the incubation (50 µL). All samples were stored at - 40 °C for LC-MS/MS analysis.
(§3) Bidirectional transport experiments. […] The transwell experiments were conducted following above-mentioned procedure. […] When the recovery rate of the tested drug is below 80%, the possibility of intracellular accumulation should be considered. The polycarbonate (PC) membrane where cells are grown should be carefully peeled off from the cell culture medium and placed in 100 µL of HBSS buffer solution. […] The process was carried out on ice to prevent heat-induced degradation, applying a power in the range of 300 W for a total duration of 20 minutes. Thereafter, a quantitative analysis of the intracellular drug was conducted, and the drug recovery rate was recalculated based on this analysis.
(§4) The apparent permeability coefficient (Papp, cm/s) was calculated for each transport direction, A-B and B-A, using the following equation: Papp=dQ/dt×1/A×C0 where dQ/dt is the permeation rate (µmol/s), A is the surface area of the insert (0.33 cm^2, Corning), and C0 is the initial donor concentration (µM).
(§5) The efflux ratio (ER) is calculated as the ratio of Papp (B-A)/Papp (A-B). Recovery=TRcumrf+Cdf×VD/Cdi×VD×100% Where TRcumrf is the cumulative transported mass in the receiver chamber at the end of the incubation (nmol), Cdf is the concentration of the drug in the donor chamber at the end of the incubation (μM), VD is the volume of the donor chamber (mL), and Cdi is the initial concentration of the drug in the donor chamber (μM).
(§6) The method of the bidirectional transport experiment was the same as before.

[4] = cited from earlier work
P-gp (human MDR1) [5] = experiment: Bidirectional transport across LLC-PK1-MDR1 monolayer stably expressing human MDR1 (P-gp) (Transwell); conditions: pig;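 further: 2 h incubation at 37 °C, receiver HBSS with 10 mM Hepes plus 1% BSA, LC-MS/MS of donor and receiver, recovery as receiver plus donor amount over initial donor amount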
Procedure: (§7) The overexpression and functional activity of P-glycoprotein (P-gp) in the LLC-PK1-MDR1 cells were rigorously validated through multiple methods.
as §1
(§8) Monitoring permeability of positive control drugs. […] Samples were collected from the donor well at the start of the incubation (50 µL) as C0, and from the donor and receiver wells at the end of the incubation (50 µL). All samples were stored at - 40 °C for LC-MS/MS analysis.
as §3, §4, §5, §6

P-gp (human MDR1) [6] = experiment: in vitro; conditions: pig, LLC-PK1, pH 7.4
Procedure: as §7, §1, §8, §3, §4, §5, §6

in vitro = conditions: pig, LLC-PK1 MOCK cell monolayer (Transwell), pH 7.4
Procedure: as §1, §2, §3, §4, §5, §6

| Kp uu (in vivo) | Papp B→A at 2 h, 2 µM ([3]; LLC-PK1, pH 7.4) [×10⁻⁶ cm/s] | Papp A→B at 2 h, 2 µM [3] [×10⁻⁶ cm/s] | Papp B→A at 2 h, 2 µM (P-gp (human MDR1) [5]; LLC-PK1, pH 7.4) [×10⁻⁶ cm/s] | Papp A→B at 2 h, 2 µM (P-gp (human MDR1) [5]; LLC-PK1, pH 7.4, Papp A-B, LLC-PK1-MDR1, 2 µM, 2 h, mean ± s, n = 3) [×10⁻⁶ cm/s] | efflux ratio at 2 h, 2 µM ([3]; LLC-PK1, pH 7.4) | recovery at 2 h, 2 µM (P-gp (human MDR1) [6]) [%] | recovery at 2 h, 2 µM (in vitro) [%] | Papp A→B at 2 h, 2 µM (P-gp (human MDR1) [5]; LLC-PK1, pH 7.4) [×10⁻⁶ cm/s] | efflux ratio at 2 h, 2 µM (P-gp (human MDR1) [5]; LLC-PK1, pH 7.4) | SMILES | Protein binding in brain tissue [1] | Kp, Brain [2] | Protein binding in plasma ([4]; footnote a, ref Internal data) | Protein binding in plasma ([4]; ref Le Quellec et al. [1994]) [%] |
| --- | --- | --- | --- | --- | --- | --- | --- | --- | --- | --- | --- | --- | --- | --- |
| 2.21 | 35.2 ± 2.56 | 30.8 ± 0.61 | 29.1 ± 3.62 | 30.2 ± 3.4 |  |  |  |  |  | Cc1cccc([C@H](C)c2cnc[nH]2)c1C [Dexmedetomidine] | 86.7^a % | 0.80^a | 95.2^a % |  |
| 0.575 | 20.6 ± 0.92 | 22.4 ± 0.51 | 21.7 ± 1.08 |  | 0.92 | 93.1 ± 1.67 | 105 ± 2.95 | 20.8 ± 1.43 | 1.02 | COc1ccc2[nH]cc(CCNC(C)=O)c2c1 [Melatonin] | 30.0^a % | 0.5^a |  | 33.0 |
